{"source": "paper PMC9378703", "about": "(Nature Communications, 2022)", "key": {"[1]": {"target": "T1, Uba1 (Saccharomyces cerevisiae, UniProt P22515, D472A)", "T1 construct": "residues 10-1024; N-terminal His-tag (pET28a); expressed in E. coli BL21 (DE3)", "T1 sequence (P22515 10-1024 D472A)": "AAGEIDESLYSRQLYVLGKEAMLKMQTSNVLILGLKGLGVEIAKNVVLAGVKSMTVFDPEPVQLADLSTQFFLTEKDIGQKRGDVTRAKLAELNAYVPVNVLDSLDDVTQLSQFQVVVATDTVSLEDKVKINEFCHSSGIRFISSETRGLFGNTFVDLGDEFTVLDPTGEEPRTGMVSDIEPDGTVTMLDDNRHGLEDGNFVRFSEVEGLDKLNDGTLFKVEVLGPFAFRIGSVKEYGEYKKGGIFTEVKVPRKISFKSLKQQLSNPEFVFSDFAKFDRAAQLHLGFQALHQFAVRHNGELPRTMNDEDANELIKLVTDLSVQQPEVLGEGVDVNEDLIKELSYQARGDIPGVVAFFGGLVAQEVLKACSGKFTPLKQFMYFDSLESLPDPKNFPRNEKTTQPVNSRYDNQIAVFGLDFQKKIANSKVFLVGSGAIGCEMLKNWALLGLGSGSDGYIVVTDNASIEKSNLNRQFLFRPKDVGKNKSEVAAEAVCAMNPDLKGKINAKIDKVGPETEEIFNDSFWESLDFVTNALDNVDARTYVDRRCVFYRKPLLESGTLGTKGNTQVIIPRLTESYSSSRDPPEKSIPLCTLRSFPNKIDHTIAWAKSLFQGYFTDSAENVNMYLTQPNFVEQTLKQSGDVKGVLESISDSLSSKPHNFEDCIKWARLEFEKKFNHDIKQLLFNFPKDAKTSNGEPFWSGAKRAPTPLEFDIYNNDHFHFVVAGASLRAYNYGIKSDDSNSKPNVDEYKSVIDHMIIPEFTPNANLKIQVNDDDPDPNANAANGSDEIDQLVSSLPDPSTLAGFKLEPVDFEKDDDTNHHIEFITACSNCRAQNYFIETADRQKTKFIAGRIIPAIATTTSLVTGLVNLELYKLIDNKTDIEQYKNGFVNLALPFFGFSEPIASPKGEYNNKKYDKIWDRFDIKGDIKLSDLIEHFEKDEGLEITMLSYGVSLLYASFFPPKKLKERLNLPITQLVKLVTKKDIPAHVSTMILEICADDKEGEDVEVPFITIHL", "assay": "colorimetric ATPase assay (BIOMOL-GREEN phosphate, pyrophosphatase-coupled)", "type": "biochemical", "conditions": "80 μM ubiquitin, 1 mM ATP, 2 mM MgCl2, pH 7.5, 30 °C; turnover"}, "[2]": {"target": "T2, Uba1 (Saccharomyces cerevisiae, UniProt P22515, D544E)", "T2 construct": "residues 10-1024; N-terminal His-tag (pET28a); expressed in E. coli BL21 (DE3)", "T2 sequence (P22515 10-1024 D544E)": "as the sequence (P22515 10-1024 D472A) above, with A463D, D535E counted along it", "assay": "colorimetric ATPase assay (BIOMOL-GREEN phosphate, pyrophosphatase-coupled)", "type": "biochemical", "conditions": "80 μM ubiquitin, 1 mM ATP, 2 mM MgCl2, pH 7.5, 30 °C; turnover"}}, "data": [{"smiles": "Nc1ncnc2c1ncn2[C@@H]1O[C@H](COP(=O)(O)OP(=O)(O)OP(=O)(O)O)[C@@H](O)[C@H]1O", "note": "[ATP]", "values": [{"measurement": "colorimetric ATPase assay (BIOMOL-GREEN phosphate, pyrophosphatase-coupled)", "setting": "[1]", "result": "the D472A variant retained full activity as did the D472E or D544E substitutions"}, {"measurement": "colorimetric ATPase assay (BIOMOL-GREEN phosphate, pyrophosphatase-coupled)", "setting": "[2]", "result": "the D472A variant retained full activity as did the D472E or D544E substitutions"}]}]}
